Here are results for two molecules from EP0847397B1, “WATER-SOLUBLE C-RING ANALOGUES OF 20 (S)-CAMPTOTHECIN” (DR. REDDY'S RESEARCH FOUNDATION, priority 1996, dated 1997).

Data set [1] relates to UO 31. Nature of the data set: NCI in vitro 60 human tumor cell line assay. The conditions noted are these: UO-31, 48 h, read-out: Total Growth Inhibition (TGI). The format is cell-based.
Procedure: (§1) Each test compound was screened against a battery of 60 human cell lines obtained from eight organs. In a typical procedure, the cell suspensions that were diluted according to the particular cell type and the expected target cell density (5000-40,000 cells per well based on cell growth characteristics) were added into 96-well microtiter plates. Inoculates were allowed a preincubation period of 24h at 37°C. for stabilization. Dilutions at twice the intended test concentrations were added at time zero in 100-µl aliquots to microtiter plate wells. Usually test compounds were evaluated at five 10-fold dilutions. The highest well concentration used in the test is 10^-4M. The cells are then incubated in the presence of drug (the test compound) for further 48h in 5% CO2 atmosphere and 100% humidity. At the end of this time, the adherent cells are fixed to the plate by means of trichloroacetic acid, and after a number of washes, the cell layer is treated with the protein stain Sulforhodamine B. The optical density which is proportional to protein mass, is then read by automated spectrophotometric plate readers at a wavelength of 515 nm. Readings are transferred to a microcomputer and final reports are generated using especially developed software.
Data set [2] concerns SF 268. The experiment in a line: NCI in vitro 60 human tumor cell line assay. The format is cell-based. Conditions: SF-268, 48 h, read-out: Total Growth Inhibition (TGI).
Procedure: (§2) Each test compound was screened against a battery of 60 human cell lines obtained from eight organs. In a typical procedure, the cell suspensions that were diluted according to the particular cell type and the expected target cell density (5000-40,000 cells per well based on cell growth characteristics) were added into 96-well microtiter plates. Inoculates were allowed a preincubation period of 24h at 37°C. for stabilization. Dilutions at twice the intended test concentrations were added at time zero in 100-µl aliquots to microtiter plate wells. Usually test compounds were evaluated at five 10-fold dilutions. The highest well concentration used in the test is 10^-4M. The cells are then incubated in the presence of drug (the test compound) for further 48h in 5% CO2 atmosphere and 100% humidity. At the end of this time, the adherent cells are fixed to the plate by means of trichloroacetic acid, and after a number of washes, the cell layer is treated with the protein stain Sulforhodamine B. The optical density which is proportional to protein mass, is then read by automated spectrophotometric plate readers at a wavelength of 515 nm.
In data set [3] the test system is EKVX. Nature of the data set: NCI in vitro 60 human tumor cell line assay. The format is cell-based. The conditions noted are these: 48 h, read-out: Total Growth Inhibition (TGI).
Procedure: as §1
Data set [4] deals with OVCAR 8. Nature of the data set: NCI in vitro 60 human tumor cell line assay. It is filed as cell-based. The conditions noted are these: OVCAR-8, 48 h, read-out: Total Growth Inhibition (TGI).
Procedure: as §2
Data set [5] is described as follows: Lactone stability in whole blood (HPLC). The format is in vitro ADME. The conditions noted are these: human, whole blood, 1 μM, 37°C, lactone peak area relative to zero time (100%); read-out: Lactone Stability in Whole Blood (after 3 hours). On the procedure:
2. Lactone Stability in whole blood:
2 ml of blood from a healthy volunteer was collected in a tube containing 40 µl of heparin (572 IU) to prevent coagulation, 4 mM and 40 µM working solutions of the drug in DMSO were prepared and added to aliquots of whole blood to give final concentration of 100 µM and 1 µM respectively. The drug is incubated in whole blood at 37°C and 20 µl samples are collected into 180 µl of chilled methanol (-30°C) at different time intervals (0, 1, 2 & 3 hrs). Vortex and then centrifuge at 11000 rpm for 3 min in a microcentrifuge at room temperature. Dilute 100 µl of the supernatant with water to 300-500 µl depending upon the signal response (UV for 100 µM concentration and fluoroscence for 1 µM concentration) of the compound. 200 µl of the diluted sample is injected on to the HPLC column previously equilibrated with the mobile phase. The area under peak corrsponding to lactone forms is measured. Zero time peak area is taken as 100%, and the proportion of lactone peak area at different time points is calculated to determine the equilibrium lactone stability as obtained by consistent lactone proportion over two successive time points. (Biochemistry, 1994; 33:10325-10336 and J. Pharm. Sci., 1995; 84:518-519).

Data set [6] has as its system SK OV3. The experiment in a line: NCI in vitro 60 human tumor cell line assay. It is filed as cell-based. Conditions: SK-OV-3, 48 h, read-out: Total Growth Inhibition (TGI).
Procedure: as §2
Data set [7] deals with H 322M. Nature of the data set: NCI in vitro 60 human tumor cell line assay. It is filed as cell-based. The conditions noted are these: NCI-H322M, 48 h, read-out: Total Growth Inhibition (TGI).
Procedure: as §1
Data set [8] relates to U 251. The experiment in a line: NCI in vitro 60 human tumor cell line assay. The format is cell-based. The conditions noted are these: U-251, 48 h, read-out: Total Growth Inhibition (TGI).
Procedure: as §1
In data set [9] the test system is H 226. The experiment in a line: NCI in vitro 60 human tumor cell line assay. The format is cell-based. The conditions noted are these: NCI-H226, 48 h, read-out: Total Growth Inhibition (TGI).
Procedure: as §1
Data set [10] relates to HOP 62. The experiment in a line: NCI in vitro 60 human tumor cell line assay. The format is cell-based. The conditions noted are these: HOP-62, 48 h, read-out: Total Growth Inhibition (TGI).
Data set [11] relates to KM 12. Nature of the data set: NCI in vitro 60 human tumor cell line assay. Conditions: KM12, 48 h, read-out: Total Growth Inhibition (TGI). The format is cell-based.
Procedure: as §1
Data set [12] relates to COLO 205. The experiment in a line: NCI in vitro 60 human tumor cell line assay. The format is cell-based. Conditions: COLO 205, 48 h, read-out: Total Growth Inhibition (TGI).
Procedure: as §1
In data set [13] the test system is H 23. Nature of the data set: NCI in vitro 60 human tumor cell line assay. It is filed as cell-based. Conditions: NCI-H23, 48 h, read-out: Total Growth Inhibition (TGI).
Procedure: as §1
Data set [14] has as its system HCT 116. The experiment in a line: NCI in vitro 60 human tumor cell line assay. It is filed as cell-based. The conditions noted are these: HCT-116, 48 h, read-out: Total Growth Inhibition (TGI).
The subject of data set [15] is MDA-N. The experiment in a line: NCI in vitro 60 human tumor cell line assay. The format is cell-based. The conditions noted are these: BREAST, 48h, read-out: Total Growth Inhibition (TGI).
Procedure: as §2
In data set [16] the test system is T 47D. Nature of the data set: NCI in vitro 60 human tumor cell line assay. The conditions noted are these: T47D, 48 h, read-out: Total Growth Inhibition (TGI). It is filed as cell-based.
Procedure: as §1
Data set [17] has as its system MDA-MB-435. The experiment in a line: NCI in vitro 60 human tumor cell line assay. It is filed as cell-based. The conditions noted are these: MDA-MB-435, 48 h, read-out: Total Growth Inhibition (TGI).
Data set [18] has as its system H 522. Nature of the data set: NCI in vitro 60 human tumor cell line assay. It is filed as cell-based. The conditions noted are these: NCI-H522, 48 h, read-out: Total Growth Inhibition (TGI).
Procedure: as §1
The test system of data set [19] is MCF 7/ ADR. The experiment in a line: NCI in vitro 60 human tumor cell line assay. It is filed as cell-based. Conditions: Homo sapiens, NCI/ADR-RES, 48 h, read-out: Total Growth Inhibition (TGI).
Procedure: as §1
In data set [20] the test system is NCI's 60 human tumor cell line assay. Nature of the data set: cells. The format is cell-based. Conditions: 60 cell, 48 h, read-out: IC50 (mean GI50 against NCI's 60 human tumor cell line assay).
Data set [21] concerns BT 549. Nature of the data set: NCI in vitro 60 human tumor cell line assay. Conditions: BT-549, 48 h, read-out: Total Growth Inhibition (TGI). The format is cell-based.
Procedure: as §1
Data set [22] relates to HOP 92. Nature of the data set: NCI in vitro 60 human tumor cell line assay. It is filed as cell-based. The conditions noted are these: HOP-92, 48 h, read-out: Total Growth Inhibition (TGI).

For the molecule `CC[C@@]1(O)C(=O)OCc2c1cc1n(c2=O)C(OCCO)c2cc3ccccc3nc2-1` (stereo partly shown) [Example 26, 5-(2'-Hydroxyethoxy)camptothecin], the IC (TGI) in data set [1] worked out at 3.89 µM; in data set [2], 30.9 µM; in data set [3] it was 63 µM; in data set [4], 13.4 µM; in data set [6] it was 3.8 µM; in [7], 31.6 µM. For the same molecule, the IC (TGI) in [8] came to 7.58 µM. For the same molecule, the remaining at 3 h, 1 µM in [5] was determined as 5.3%.
Turning to `CC[C@@]1(O)C(=O)OCc2c1cc1n(c2=O)C(OCC(F)(F)F)c2cc3cc(O)ccc3nc2-1` (stereo partly shown) [Example 27, 10-Hydroxy-5-trifluoroethoxycamptothecin], the IC (TGI) turned out to be 4.75 µM in data set [9]; 4.95 µM in data set [10]; 10.6 µM in data set [11]; 19.5 µM in data set [12]; 0.91 µM in data set [13]; 4.06 µM in data set [14]. The IC (TGI) stood at 11 µM in [15]; 0.81 µM in data set [16]; 9.62 µM in data set [17]; 7.66 µM in [18]; 1.25 µM in data set [19]; 11.4 µM in data set [21]. Further, in data set [22], the IC (TGI) turned out to be 4.88 µM. Also, the mean GI50 in [20] came to 0.38 µM.
